Laboratory results: ChEMBL document CHEMBL4400538, “Discovery of Carboline Derivatives as Potent Antifungal Agents for the Treatment of Cryptococcal Meningitis” (J Med Chem, 2019)
Activity calls are given as the source filed them. The rule behind the calls is not given here.

What was measured:
[1] = Clearance in ICR mouse liver microsomes at 1 uM measured up to 45 mins in presence of NADPH by LC-MS/MS analysis; format: ADME, Microsome; details: 0.75 h
Cryptococcus neoformans [2] = experiment: Antifungal activity against Cryptococcus neoformans ATCC 34877 after 72 hrs by spectrophotometery; format: functional; details: ATCC 34877, 72 h
HUVEC = experiment: Cytotoxicity against human HUVEC; format: cell-based
Cryptococcus neoformans [3] = experiment: Antibiofilm activity against Cryptococcus neoformans H99 assessed as inhibition of cellular surface hydrophobicity at 5 ug/ml incubated for 24 hrs by water-hydrocarbon two-phase assay; format: functional, organism-based; details: var grubii H99
Cryptococcus neoformans [4] = experiment: Induction of up-regulation of APC/C gene expression in Cryptococcus neoformans H99 at 2 ug/ml after 24 hrs by RNA-seq analysis based KEGG pathway enrichment analysis; format: functional, organism-based; details: var grubii H99
Aspergillus fumigatus = experiment: Antifungal activity against Aspergillus fumigatus 7544 after 48 hrs by spectrophotometery; format: functional; details: Aspergillus fumigatus, 7544, 48 h
[5] = Half life in ICR mouse liver microsomes at 1 uM measured up to 45 mins in presence of NADPH by LC-MS/MS analysis; format: ADME, Microsome
Cryptococcus neoformans [6] = experiment: Induction of up-regulation of DNA polymerase alpha2 gene expression in Cryptococcus neoformans H99 at 2 ug/ml after 24 hrs by RNA-seq analysis based KEGG pathway enrichment analysis; format: functional, organism-based; details: var grubii H99
[7] = Protein binding in mouse plasma; format: ADME, cell-free
Cryptococcus neoformans [8] = experiment: Antifungal activity against Cryptococcus neoformans H99 assessed as inhibition of microbial growth at 8 ug/ml after 12 to 48 hrs by growth curve assay; format: functional; details: var grubii H99, read-out: GI
Cryptococcus neoformans [9] = experiment: Induction of up-regulation of PNAC gene expression in Cryptococcus neoformans H99 at 2 ug/ml after 24 hrs by RNA-seq analysis based KEGG pathway enrichment analysis; format: functional, organism-based; details: var grubii H99
Cryptococcus neoformans [10] = experiment: Induction of up-regulation of Mps1 gene expression in Cryptococcus neoformans H99 at 2 ug/ml after 24 hrs by RNA-seq analysis based KEGG pathway enrichment analysis; format: functional, organism-based; details: var grubii H99
Cryptococcus neoformans [11] = experiment: Induction of up-regulation of Mob1 gene expression in Cryptococcus neoformans H99 at 2 ug/ml after 24 hrs by RNA-seq analysis based KEGG pathway enrichment analysis; format: functional, organism-based; details: var grubii H99
Cryptococcus neoformans [12] = experiment: Inhibition of melanin production in Cryptococcus neoformans H99 at 2.5 ug/ml; format: functional, organism-based; details: var grubii H99
Candida parapsilosis = experiment: Antifungal activity against Candida parapsilosis 5008 after 48 hrs by spectrophotometery; format: functional; details: Lodderomyces parapsilosis, 5008, 48 h
Cryptococcus neoformans [13] = experiment: Induction of up-regulation of Ycg1 gene expression in Cryptococcus neoformans H99 at 2 ug/ml after 24 hrs by RNA-seq analysis based KEGG pathway enrichment analysis; format: functional, organism-based; details: var grubii H99
Trichophyton rubrum = experiment: Antifungal activity against Trichophyton rubrum TIA after 48 hrs by spectrophotometery; format: functional
Cryptococcus neoformans [14] = experiment: Inhibition of urease production in Cryptococcus neoformans H99 at 10 ug/ml; format: functional, organism-based; details: var grubii H99
Candida albicans [15] = experiment: Antifungal activity against Candida albicans 7781 after 48 hrs by spectrophotometery; format: functional; details: Candida albicans, 7781, 48 h
Cryptococcus neoformans [16] = experiment: Induction of up-regulation of Hs17 gene expression in Cryptococcus neoformans H99 at 2 ug/ml after 24 hrs by RNA-seq analysis based KEGG pathway enrichment analysis; format: functional, organism-based; details: var grubii H99
Cryptococcus neoformans [17] = experiment: Antifungal activity against Cryptococcus neoformans H99 after 48 hrs by growth curve assay; format: functional
Cryptococcus neoformans [18] = experiment: Antifungal activity against Cryptococcus neoformans H99 infected in ICR mouse assessed as reduction in brain fungal load at 20 mg/kg, po administered daily for 5 days; format: functional, organism-based; details: var grubii H99
Candida albicans [19] = experiment: Antifungal activity against Candida albicans 0304103 after 48 hrs by spectrophotometery; format: functional; details: Candida albicans, 0304103, 48 h
Cryptococcus gattii = experiment: Antifungal activity against Cryptococcus gattii ATCC 14116 after 72 hrs by spectrophotometery; details: ATCC 14116, 72 h
Cryptococcus neoformans [20] = experiment: Induction of up-regulation of PLK1 gene expression in Cryptococcus neoformans H99 at 2 ug/ml after 24 hrs by RNA-seq analysis based KEGG pathway enrichment analysis; format: functional, organism-based; details: var grubii H99
Cryptococcus neoformans [21] = experiment: Induction of cell cycle arrest in Cryptococcus neoformans H99 assessed as accumulation at G1 phase at 1 to 2 ug/ml after 24 hrs by propidium iodide-staining based FACS analysis (reference value: 44.50%); format: functional, var grubii H99
Cryptococcus neoformans [22] = experiment: Induction of up-regulation of MCM gene expression in Cryptococcus neoformans H99 at 2 ug/ml after 24 hrs by RNA-seq analysis based KEGG pathway enrichment analysis; format: functional, organism-based; details: var grubii H99
Cryptococcus neoformans [23] = experiment: Induction of up-regulation of PCNA gene expression in Cryptococcus neoformans H99 at 2 ug/ml after 24 hrs by RNA-seq analysis based KEGG pathway enrichment analysis; format: functional, organism-based; details: var grubii H99
Cryptococcus neoformans [24] = experiment: Antifungal activity against Cryptococcus neoformans H99 infected in ICR mouse assessed as reduction in brain fungal load at 10 mg/kg, ip administered once daily; format: functional, organism-based; details: var grubii H99
Nakaseomyces glabratus = experiment: Antifungal activity against Candida glabrata 8535 after 48 hrs by spectrophotometery; format: functional; details: Nakaseomyces glabratus, 8535, 48 h
Cryptococcus neoformans [25] = experiment: Antifungal activity against Cryptococcus neoformans H99 assessed as up-regulation of Cdc25C expression after 24 hrs by Western blot analysis; format: functional, organism-based; details: var grubii H99
Cryptococcus neoformans [26] = experiment: Induction of up-regulation of Lig1 gene expression in Cryptococcus neoformans H99 at 2 ug/ml after 24 hrs by RNA-seq analysis based KEGG pathway enrichment analysis; format: functional, organism-based; details: var grubii H99
[27] = Solubility of the compound; format: physicochemical
Nannizzia gypsea = experiment: Antifungal activity against Microsporum gypseum MZC after 48 hrs by spectrophotometery; format: functional
Cryptococcus neoformans [28] = experiment: Induction of cell cycle arrest in Cryptococcus neoformans H99 assessed as accumulation at G2 phase at 1 to 2 ug/ml after 24 hrs by propidium iodide-staining based FACS analysis (reference value: 3.86%); format: functional, var grubii H99
Cryptococcus neoformans [29] = experiment: Antifungal activity against Cryptococcus neoformans H99 assessed as up-regulation of cyclin B1 expression after 24 hrs by Western blot analysis; format: functional, organism-based; details: var grubii H99
Cryptococcus neoformans [30] = experiment: Antifungal activity against Cryptococcus neoformans H99 after 72 hrs by growth curve assay; format: functional; details: var grubii H99 
Cryptococcus neoformans [31] = experiment: Antifungal activity against Cryptococcus neoformans H99 assessed as induction of gamma-H2AX foci at 2 ug/ml after 48 hrs by Hoechst-33342 staining based fluorescence microscopy; format: functional, organism-based; details: var grubii H99
[32] = Effective permeability of the compound after 12 hrs by PAMPA; format: ADME; details: read-out: Peff
Cryptococcus neoformans [33] = experiment: Antifungal activity against Cryptococcus neoformans H99 assessed as cell wall collapse at 4 ug/ml after 24 hrs by TEM analysis; format: functional, organism-based; details: var grubii H99
Cryptococcus neoformans [34] = experiment: Induction of cell cycle arrest in Cryptococcus neoformans H99 assessed as accumulation at S phase at 1 to 2 ug/ml after 24 hrs by propidium iodide-staining based FACS analysis (reference value: 51.64%); format: functional, var grubii H99
Cryptococcus neoformans [35] = experiment: Antifungal activity against Cryptococcus neoformans H99 assessed as formation of abnormally shaped cells at 4 ug/ml after 24 hrs by TEM analysis; format: functional, organism-based; details: var grubii H99
Cryptococcus neoformans [36] = experiment: Antibiofilm activity against Cryptococcus neoformans H99 at 16 ug/ml after 90 mins by XTT assay; format: functional, organism-based; details: var grubii H99
Cryptococcus neoformans [37] = experiment: Antifungal activity against Cryptococcus neoformans H99 assessed as up-regulation of CDK1 expression after 24 hrs by Western blot analysis; format: functional, organism-based; details: var grubii H99
Cryptococcus neoformans [38] = experiment: Induction of up-regulation of ORC gene expression in Cryptococcus neoformans H99 at 2 ug/ml after 24 hrs by RNA-seq analysis based KEGG pathway enrichment analysis; format: functional, organism-based; details: var grubii H99
Cryptococcus neoformans [39] = experiment: Antifungal activity against Cryptococcus neoformans H99 assessed as nuclear pyknosis at 4 ug/ml after 24 hrs by TEM analysis; format: functional, organism-based; details: var grubii H99

Compound: Clc1ccc(OCCCn2c3c(c4cc(Cl)ccc42)CCNC3)cc1.O=C(O)C(F)(F)F
- scaled CLint [1]: 78 mL/min/kg
- MIC80 (Cryptococcus neoformans [2]): 0.5 µg/mL
- Activity (HUVEC): Non-Toxic
- Activity (Cryptococcus neoformans [3]): Active
- Activity (Cryptococcus neoformans [4]): Active
- MIC80 (Aspergillus fumigatus): 16 µg/mL
- half-life at 1 µM [5]: 1.17 h
- Activity (Cryptococcus neoformans [6]): Active
- PPB [7]: Active
- inhibition of growth at 8 µg/mL (Cryptococcus neoformans [8]): 100%
- Activity (Cryptococcus neoformans [9]): Active
- Activity (Cryptococcus neoformans [10]): Active
- Activity (Cryptococcus neoformans [11]): Active
- inhibition (Cryptococcus neoformans [12]): Active
- MIC80 (Candida parapsilosis): 2 µg/mL
- Activity (Cryptococcus neoformans [13]): Active
- MIC80 (Trichophyton rubrum): 4 µg/mL
- inhibition (Cryptococcus neoformans [14]): inactive
- MIC80 (Candida albicans [15]): 4 µg/mL
- Activity (Cryptococcus neoformans [16]): Active
- Activity (Cryptococcus neoformans [17]; var grubii H99): Dose-dependent effect
- MIC80 (Cryptococcus neoformans [17]; var grubii H99 ): 0.25 µg/mL
- Activity (Cryptococcus neoformans [18]): Active
- MIC80 (Candida albicans [19]): 2 µg/mL
- MIC80 (Cryptococcus gattii): 1 µg/mL
- Activity (Cryptococcus neoformans [20]): Active
- Activity (Cryptococcus neoformans [21]): 36.45%
- Activity (Cryptococcus neoformans [22]): Active
- Activity (Cryptococcus neoformans [23]): Active
- Activity (Cryptococcus neoformans [24]): Active
- MIC80 (Nakaseomyces glabratus): 1 µg/mL
- Activity (Cryptococcus neoformans [25]): Dose-dependent effect
- Activity (Cryptococcus neoformans [26]): Active
- solubility [27]: 54.6 µg/mL
- MIC80 (Nannizzia gypsea): 8 µg/mL
- Activity (Cryptococcus neoformans [28]): 10.34%
- Activity (Cryptococcus neoformans [29]): Dose-dependent effect
- MIC80 (Cryptococcus neoformans [30]): 0.5 µg/mL
- Activity (Cryptococcus neoformans [31]): Active
- Papp at 12 h [32]: 1.8 ×10⁻⁶ cm/s
- Activity (Cryptococcus neoformans [33]): Active
- Activity (Cryptococcus neoformans [34]): 53.21%
- Activity (Cryptococcus neoformans [35]): Active
- Activity (Cryptococcus neoformans [36]): Active
- Activity (Cryptococcus neoformans [37]): Dose-dependent effect
- Activity (Cryptococcus neoformans [38]): Active
- Activity (Cryptococcus neoformans [39]): Active
